{"source": "patent EP4682156A1", "about": "“LINKER AND DRUG CONJUGATE USING SAME, AND ANTIBODY-DRUG CONJUGATE AND USE THEREOF” (Shanghai Affinity Biopharmaceutical Co., Ltd., priority 2023, dated 2024)", "key": {"cathepsin L": {"biological_target": "cathepsin L (Homo sapiens, UniProt P07711)", "sequence (P07711 114-333)": "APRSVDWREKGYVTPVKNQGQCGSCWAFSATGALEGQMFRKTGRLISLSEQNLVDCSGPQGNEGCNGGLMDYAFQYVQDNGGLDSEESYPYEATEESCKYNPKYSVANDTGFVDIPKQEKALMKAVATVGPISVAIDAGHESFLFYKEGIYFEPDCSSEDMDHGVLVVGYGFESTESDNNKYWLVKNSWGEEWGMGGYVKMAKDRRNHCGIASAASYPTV", "experiment": "Enzymatic cleavage by cathepsin L, released DXD quantified by HPLC", "format": "biochemical", "design": "Enzymatic cleavage efficiency %: concentration or dose not given beside the values"}, "[1]": {"experiment": "Stability in human plasma", "details": "within 20 hours"}, "[2]": {"details": "human"}, "Human Fibrosarcoma": {"tested_on": "Human Fibrosarcoma", "design": "species or system Nude mice", "details": "mouse, in vivo"}}, "note": "Like-named read-outs stand apart in the source and are kept apart here. *1 amine or outer side, *2 acyl side, *3 side chain or, on linkers, in order; H or OH if unused. Where a SMILES comes first, the peptide text is derived from it. [ ]: non-standard residue; d: D form. The star is where a group is joined. Doxorubicin(3'-N) = COc1cccc2c1C(=O)c1c(O)c3c(c(O)c1C2=O)C[C@@](O)(C(=O)CO)C[C@@H]3O[C@H]1C[C@H](N*)[C@H](O)[C@H](C)O1; Exatecan = CC[C@@]1(O)C(=O)OCc2c1cc1n(c2=O)Cc2c-1nc1cc(F)c(C)c3c1c2[C@@H](N*)CC3; X8 = CCc1c2c(nc3ccc(O)cc13)-c1cc3c(c(=O)n1C2)COC(=O)[C@@]3(CC)OCN*; X5 = CCc1c2c(nc3ccc(OCN*)cc13)-c1cc3c(c(=O)n1C2)COC(=O)[C@]3(O)CC; X1 = O=C(CCCCCOC1O[C@H](CO)[C@H](O)[C@H](O)[C@H]1N[*:1])[*:2]; X9 = Nc1ccn([C@@H]2O[C@H](COCN*)[C@@H](O)C2(F)F)c(=O)n1; Dolaproine = CO[C@@H]([C@@H]1CCCN1)[C@@H](C)C(=O)O; Hexanoyl(6-maleimido) = O=C1C=CC(=O)N1CCCCCC(=O)*; Dil = CC[C@H](C)[C@H](NC)[C@@H](CC(=O)O)OC; X4 = CCCCc1nc2c(N)nc3ccccc3c2n1CCCCN*; X7 = O=C(OC1[C@H]2CCC#CCC[C@@H]12)*; DBCO = C1#Cc2ccccc2N(*)Cc2ccccc21; NHCH2OCH2CO = O=C(COCN[*:1])[*:2]; X3 = C[C@@H](N*)[C@@H](O)c1ccccc1; X6 = O=C1C=C(Br)C(=O)N1CCC(=O)*; X2 = COCCOCCOCCOCCOCCOCC(=O)*; Suc = O=C(CCC(=O)[*:2])[*:1]; NMeV = CN[C@H](C(=O)O)C(C)C; PEG3 = NCCOCCOCCOCCC(=O)O; GABA = NCCCC(=O)O"}
{"smiles": "CC[C@@]1(O)C(=O)OCc2c1cc1n(c2=O)Cc2c-1nc1cc(F)c(C)c3c1c2[C@@H](NC(=O)COCNC(=O)[C@H](CC(C)C)NC(=O)[C@H](Cc1ccccc1)NC(=O)CNC(=O)CNC(=O)CCOCCOCCOCCNC(=O)CCC(=O)N1Cc2ccccc2C#Cc2ccccc21)CC3", "note": "[S34] ({DBCO-Suc-PEG3}-GGFL[NHCH2OCH2CO]-Exatecan)", "values": [{"measurement": "Enzymatic cleavage efficiency %", "setting": "cathepsin L", "result": 98.1, "unit": "%"}, {"measurement": "Substrate content %", "setting": "[1]", "result": 98.3, "unit": "%"}]}
{"smiles": "CC[C@@]1(O)C(=O)OCc2c1cc1n(c2=O)Cc2c-1nc1cc(F)c(C)c3c1c2[C@@H](NC(=O)CCCNC(=O)[C@H](CC(C)C)NC(=O)[C@H](Cc1ccccc1)NC(=O)CNC(=O)CNC(=O)CCOCCOCCOCCNC(=O)CCC(=O)N1Cc2ccccc2C#Cc2ccccc21)CC3", "note": "[S32] ({DBCO-Suc-PEG3}-GGFL[GABA]-Exatecan)", "values": [{"measurement": "Enzymatic cleavage efficiency %", "setting": "cathepsin L", "result": 98.0, "unit": "%"}, {"measurement": "Substrate content %", "setting": "[1]", "result": 100, "unit": "%"}]}
{"smiles": "COc1cccc2c1C(=O)c1c(O)c3c(c(O)c1C2=O)C[C@@](O)(C(=O)CO)C[C@@H]3O[C@H]1C[C@H](NC(=O)[C@H](CC(C)C)NC(=O)[C@H](Cc2ccccc2)NC(=O)CNC(=O)CNC(=O)CCCCCN2C(=O)C=CC2=O)[C@H](O)[C@H](C)O1", "note": "[S1] ({Hexanoyl(6-maleimido)}-GGFL-{Doxorubicin(3'-N)})", "values": [{"measurement": "Enzymatic cleavage efficiency %", "setting": "cathepsin L", "result": 90.5, "unit": "%"}, {"measurement": "Generated load %", "setting": "[2]", "result": 0.0, "unit": "%"}, {"measurement": "Substrate content %", "setting": "[2]", "result": 100, "unit": "%"}]}
{"smiles": "CC[C@@]1(O)C(=O)OCc2c1cc1n(c2=O)Cc2c-1nc1cc(F)c(C)c3c1c2[C@@H](NC(=O)COCNC(=O)[C@H](CC(C)C)NC(=O)[C@H](Cc1ccccc1)NC(=O)CNC(=O)CNC(=O)[C@H](CCCCNC(=O)COCCOCCOCCOCCOCCOC)NC(=O)CCCCCN1C(=O)C=CC1=O)CC3", "note": "[S8] ({Hexanoyl(6-maleimido)}-K(X2)GGFL[NHCH2OCH2CO]-Exatecan)", "values": [{"measurement": "Anti-tumor rate% Day 20", "setting": "Human Fibrosarcoma", "result": 98, "unit": "%"}, {"measurement": "Tumor volume(mm^3) Day 20", "setting": "Human Fibrosarcoma", "result": 15, "unit": "mm^3"}, {"measurement": "treatment efficacy compared with DXd", "setting": "Human Fibrosarcoma", "result": "significantly improved treatment efficacy"}, {"measurement": "Enzymatic cleavage efficiency %", "setting": "cathepsin L", "result": 98.0, "unit": "%"}, {"measurement": "Substrate content %", "setting": "[1]", "result": 98.0, "unit": "%"}]}
{"smiles": "CC[C@@]1(O)C(=O)OCc2c1cc1n(c2=O)Cc2c-1nc1cc(F)c(C)c3c1c2[C@@H](NC(=O)COCNC(=O)[C@H](CC(C)C)NC(=O)[C@H](Cc1ccccc1)NC(=O)CNC(=O)CNC(=O)CCCCCOC1O[C@H](CO)[C@H](O)[C@H](O)[C@H]1NC(C)=O)CC3", "note": "(stereo partly shown) [S18] (Ac-[X1]GGFL[NHCH2OCH2CO]-Exatecan)", "values": [{"measurement": "Anti-tumor rate% Day 20", "setting": "Human Fibrosarcoma", "result": 95, "unit": "%"}, {"measurement": "Tumor volume(mm^3) Day 20", "setting": "Human Fibrosarcoma", "result": 40, "unit": "mm^3"}, {"measurement": "treatment efficacy compared with DXd", "setting": "Human Fibrosarcoma", "result": "significantly improved treatment efficacy"}, {"measurement": "Enzymatic cleavage efficiency %", "setting": "cathepsin L", "result": 98.3, "unit": "%"}, {"measurement": "Substrate content %", "setting": "[1]", "result": 98.2, "unit": "%"}]}
{"smiles": "CCc1c2c(nc3ccc(OCNC(=O)[C@H](CC(C)C)NC(=O)[C@H](Cc4ccccc4)NC(=O)CNC(=O)CNC(=O)CCCCCN4C(=O)C=CC4=O)cc13)-c1cc3c(c(=O)n1C2)COC(=O)[C@]3(O)CC", "note": "[S14] ({Hexanoyl(6-maleimido)}-GGFL-X5)", "values": [{"measurement": "Enzymatic cleavage efficiency %", "setting": "cathepsin L", "result": 98.0, "unit": "%"}, {"measurement": "Substrate content %", "setting": "[1]", "result": 98.0, "unit": "%"}]}
{"smiles": "CC[C@H](C)[C@@H]([C@@H](CC(=O)N1CCC[C@H]1[C@H](OC)[C@@H](C)C(=O)N[C@H](C)[C@@H](O)c1ccccc1)OC)N(C)C(=O)[C@@H](NC(=O)[C@H](C(C)C)N(C)C(=O)[C@H](CC(C)C)NC(=O)[C@H](Cc1ccccc1)NC(=O)CNC(=O)CNC(=O)CCCCCN1C(=O)C=CC1=O)C(C)C", "note": "[S5] ({Hexanoyl(6-maleimido)}-GGFL[NMeV]V[Dil][Dolaproine]-X3)", "values": [{"measurement": "Enzymatic cleavage efficiency %", "setting": "cathepsin L", "result": 93.1, "unit": "%"}]}
{"smiles": "CCCCc1nc2c(N)nc3ccccc3c2n1CCCCNC(=O)[C@H](CC(C)C)NC(=O)[C@H](Cc1ccccc1)NC(=O)CNC(=O)CNC(=O)CCOCCOCCOCCNC(=O)CCC(=O)N1Cc2ccccc2C#Cc2ccccc21", "note": "[S31] ({DBCO-Suc-PEG3}-GGFL-X4)", "values": [{"measurement": "Enzymatic cleavage efficiency %", "setting": "cathepsin L", "result": 97.5, "unit": "%"}]}
{"smiles": "CC[C@@]1(O)C(=O)OCc2c1cc1n(c2=O)Cc2c-1nc1cc(F)c(C)c3c1c2[C@@H](NC(=O)COCNC(=O)[C@@H](N)CC(C)C)CC3", "note": "[L-AM-DXD, Leu-AM-DXd, reference compound]", "values": [{"measurement": "DXD produced, share of the reaction substrate (enzymatic cleavage activation efficiency)", "setting": "cathepsin L; pH 6", "result": 1.45, "unit": "%"}]}
{"smiles": "CC[C@@]1(O)C(=O)OCc2c1cc1n(c2=O)Cc2c-1nc1cc(F)c(C)c3c1c2[C@@H](NC(=O)[C@H](CC(C)C)NC(=O)[C@H](Cc1ccccc1)NC(=O)CNC(=O)CNC(=O)CCN1C(=O)C=C(Br)C1=O)CC3", "note": "[S26] (X6-GGFL-Exatecan)", "values": [{"measurement": "Enzymatic cleavage efficiency %", "setting": "cathepsin L", "result": 95.1, "unit": "%"}, {"measurement": "Substrate content %", "setting": "[1]", "result": 100, "unit": "%"}]}
{"smiles": "CC(C)C[C@H](NC(=O)[C@H](Cc1ccccc1)NC(=O)CNC(=O)CNC(=O)CCCCCN1C(=O)C=CC1=O)C(=O)NCOC[C@H]1O[C@@H](n2ccc(N)nc2=O)C(F)(F)[C@@H]1O", "note": "[S16] ({Hexanoyl(6-maleimido)}-GGFL-X9)", "values": [{"measurement": "Enzymatic cleavage efficiency %", "setting": "cathepsin L", "result": 92.3, "unit": "%"}]}
{"smiles": "CC[C@@]1(O)C(=O)OCc2c1cc1n(c2=O)Cc2c-1nc1cc(F)c(C)c3c1c2[C@@H](NC(=O)COCNC(=O)[C@H](CC(C)C)NC(=O)[C@H](Cc1ccccc1)NC(=O)CNC(=O)CNC(=O)CCCCCN1C(=O)C=CC1=O)CC3", "note": "[S6] ({Hexanoyl(6-maleimido)}-GGFL[NHCH2OCH2CO]-Exatecan)", "values": [{"measurement": "Enzymatic cleavage efficiency %", "setting": "cathepsin L", "result": 98.0, "unit": "%"}, {"measurement": "Generated load %", "setting": "[1]", "result": 2.0, "unit": "%"}, {"measurement": "Substrate content %", "setting": "[1]", "result": 98.0, "unit": "%"}]}
{"smiles": "CC[C@@]1(O)C(=O)OCc2c1cc1n(c2=O)Cc2c-1nc1cc(F)c(C)c3c1c2[C@@H](NC(=O)CCCNC(=O)[C@H](CC(C)C)NC(=O)[C@H](Cc1ccccc1)NC(=O)CNC(=O)CNC(=O)CCOCCOCCOCCNC(=O)OC1[C@H]2CCC#CCC[C@@H]12)CC3", "note": "(stereo partly shown) [S28] ({X7-PEG3}-GGFL[GABA]-Exatecan)", "values": [{"measurement": "Enzymatic cleavage efficiency %", "setting": "cathepsin L", "result": 95.1, "unit": "%"}, {"measurement": "Substrate content %", "setting": "[1]", "result": 100, "unit": "%"}]}
{"smiles": "CCc1c2c(nc3ccc(O)cc13)-c1cc3c(c(=O)n1C2)COC(=O)[C@@]3(CC)OCNC(=O)[C@H](CC(C)C)NC(=O)[C@H](Cc1ccccc1)NC(=O)CNC(=O)CNC(=O)CCCCCN1C(=O)C=CC1=O", "note": "[S15] ({Hexanoyl(6-maleimido)}-GGFL-X8)", "values": [{"measurement": "Enzymatic cleavage efficiency %", "setting": "cathepsin L", "result": 95.1, "unit": "%"}]}
{"smiles": "CC[C@@]1(O)C(=O)OCc2c1cc1n(c2=O)Cc2c-1nc1cc(F)c(C)c3c1c2[C@@H](NC(=O)[C@H](CC(C)C)NC(=O)[C@H](Cc1ccccc1)NC(=O)CNC(=O)CNC(=O)CCCCCN1C(=O)C=CC1=O)CC3", "note": "[S2] ({Hexanoyl(6-maleimido)}-GGFL-Exatecan)", "values": [{"measurement": "Enzymatic cleavage efficiency %", "setting": "cathepsin L", "result": 91.1, "unit": "%"}, {"measurement": "Substrate content %", "setting": "[1]", "result": 100, "unit": "%"}]}
{"smiles": "CCCCc1nc2c(N)nc3ccccc3c2n1CCCCNC(=O)[C@H](CC(C)C)NC(=O)[C@H](Cc1ccccc1)NC(=O)CNC(=O)CNC(=O)CCOCCOCCOCCNC(=O)OC1[C@H]2CCC#CCC[C@@H]12", "note": "(stereo partly shown) [S27]", "values": [{"measurement": "Enzymatic cleavage efficiency %", "setting": "cathepsin L; cathepsin L, within 20 h", "result": 94.5, "unit": "%"}, {"measurement": "Substrate content %", "setting": "[1]", "result": 100, "unit": "%"}]}
{"smiles": "CCCCc1nc2c(N)nc3ccccc3c2n1CCCCNC(=O)[C@H](CC(C)C)NC(=O)[C@H](Cc1ccccc1)NC(=O)CNC(=O)CNC(=O)CCCCCN1C(=O)C=CC1=O", "note": "[S3] ({Hexanoyl(6-maleimido)}-GGFL-X4)", "values": [{"measurement": "Enzymatic cleavage efficiency %", "setting": "cathepsin L; cathepsin L, within 20 h", "result": 91.0, "unit": "%"}, {"measurement": "Substrate content %", "setting": "[1]", "result": 100, "unit": "%"}]}
